Assay results as given in ChEMBL document CHEMBL4011630 (J Med Chem, 2017).
Where a SMILES comes first, the peptide text is derived from it. Bridges are numbered along the chain shown (N, C = ends). [ ]: non-standard residue; d: D form. hMet = CSCCC[C@H](N)C(=O)O

Legend:
[1] = target: T1, Neuronal acetylcholine receptor; alpha3/beta4 (Rattus norvegicus, UniProt P04757+P12392); experiment: Antagonist activity at rat alpha3beta4 nACHR expressed in xenopous laevis oocyte assessed as inhibition of ACh induced channel current after 5 mins at -70 mV holding potential by two electrode voltage clamp method
[2] = target: T2, Nicotinic acetylcholine receptor alpha6/alpha3/beta4 (Rattus norvegicus, UniProt P04757+P12392+P43143); experiment: Antagonist activity at rat alpha6/alpha3beta4 nACHR expressed in xenopous laevis oocyte assessed as inhibition of ACh induced channel current after 5 mins at -70 mV holding potential by two electrode voltage clamp method
[3] = target: T1, Neuronal acetylcholine receptor; alpha3/beta4; experiment: Antagonist activity at rat alpha3beta4 nACHR expressed in xenopous laevis oocyte assessed as inhibition of ACh induced channel current after 6 to 10 mins at -70 mV holding potential by two electrode voltage clamp method
[4] = target: T2, Nicotinic acetylcholine receptor alpha6/alpha3/beta4; experiment: Antagonist activity at rat alpha6/alpha3beta4 nACHR expressed in xenopous laevis oocyte assessed as inhibition of ACh induced channel current after 6 to 10 mins at -70 mV holding potential by two electrode voltage clamp method
[5] = species on record: Rattus norvegicus; experiment: Selectivity ratio of IC50 for rat alpha6/alpha3beta4 nACHR expressed in xenopous laevis oocyte after 6 to 10 mins to IC50 for rat alpha3beta4 nACHR expressed in xenopous laevis oocyte after 6 to 10 mins

T1 sequence (P04757 whole entry): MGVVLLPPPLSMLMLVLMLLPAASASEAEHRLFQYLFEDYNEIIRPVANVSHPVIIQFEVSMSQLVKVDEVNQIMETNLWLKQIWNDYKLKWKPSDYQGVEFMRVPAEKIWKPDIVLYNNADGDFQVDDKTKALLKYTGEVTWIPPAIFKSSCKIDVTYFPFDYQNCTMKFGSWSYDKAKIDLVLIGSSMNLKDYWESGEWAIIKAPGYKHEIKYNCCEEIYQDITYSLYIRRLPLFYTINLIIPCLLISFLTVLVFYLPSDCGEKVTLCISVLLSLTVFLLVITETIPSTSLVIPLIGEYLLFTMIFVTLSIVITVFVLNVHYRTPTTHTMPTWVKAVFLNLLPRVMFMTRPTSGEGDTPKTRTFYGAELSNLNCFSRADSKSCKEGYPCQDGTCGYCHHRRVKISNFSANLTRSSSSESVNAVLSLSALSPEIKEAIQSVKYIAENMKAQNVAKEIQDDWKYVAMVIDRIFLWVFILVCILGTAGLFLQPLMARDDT
T1 sequence (P12392 whole entry): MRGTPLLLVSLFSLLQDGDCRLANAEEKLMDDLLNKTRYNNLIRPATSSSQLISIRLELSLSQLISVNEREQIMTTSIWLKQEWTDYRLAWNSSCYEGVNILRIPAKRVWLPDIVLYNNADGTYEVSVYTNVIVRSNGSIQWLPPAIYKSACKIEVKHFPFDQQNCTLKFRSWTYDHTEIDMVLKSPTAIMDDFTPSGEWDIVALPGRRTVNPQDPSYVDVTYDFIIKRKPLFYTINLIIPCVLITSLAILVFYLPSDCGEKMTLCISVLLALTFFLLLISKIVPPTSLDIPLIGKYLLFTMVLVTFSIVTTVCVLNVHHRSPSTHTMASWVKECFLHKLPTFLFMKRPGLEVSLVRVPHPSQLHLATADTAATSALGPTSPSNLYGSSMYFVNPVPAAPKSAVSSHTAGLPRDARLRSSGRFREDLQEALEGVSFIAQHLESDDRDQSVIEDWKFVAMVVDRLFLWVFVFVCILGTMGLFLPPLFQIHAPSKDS
T2 sequence (P04757 whole entry): as the sequence (P04757 whole entry) above
T2 sequence (P12392 whole entry): as the sequence (P12392 whole entry) above
T2 sequence (P43143 whole entry): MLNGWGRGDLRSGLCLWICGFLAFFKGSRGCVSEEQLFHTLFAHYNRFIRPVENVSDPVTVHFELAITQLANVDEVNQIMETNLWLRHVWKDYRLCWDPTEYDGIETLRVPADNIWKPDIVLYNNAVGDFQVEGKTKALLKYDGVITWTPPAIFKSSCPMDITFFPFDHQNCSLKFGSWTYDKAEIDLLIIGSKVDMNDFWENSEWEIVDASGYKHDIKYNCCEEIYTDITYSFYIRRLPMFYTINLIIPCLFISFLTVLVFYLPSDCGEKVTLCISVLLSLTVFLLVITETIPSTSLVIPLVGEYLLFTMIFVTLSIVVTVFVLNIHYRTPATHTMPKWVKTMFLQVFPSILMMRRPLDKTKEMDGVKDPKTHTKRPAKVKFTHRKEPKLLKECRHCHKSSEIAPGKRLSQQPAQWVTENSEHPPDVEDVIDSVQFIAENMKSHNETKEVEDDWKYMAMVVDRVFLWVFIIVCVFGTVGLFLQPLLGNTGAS

| Structure (SMILES) | IC50 [1] | IC50 [2] | IC50 [3] | IC50 [4] | Ratio IC50 [5] |
| --- | --- | --- | --- | --- | --- |
| CC[C@H](C)[C@@H]1NC(=O)[C@@H]2CCCN2C(=O)[C@H](CO)NC(=O)[C@H](CCCSC)NC(=O)[C@H](C)NC(=O)[C@H](CO)NC(=O)[C@@H]2CSSC[C@H](NC(=O)CN)C(=O)N[C@@H](CSSC[C@@H](C(N)=O)NC1=O)C(=O)N[C@@H](CO)C(=O)N[C@@H](Cc1cnc[nH]1)C(=O)N1CCC[C@H]1C(=O)N[C@@H](C)C(=O)N2 (H-GCCSHPACSA[hMet]SPIC-NH2; disulfide 2-8, 3-15) | > 10000 nM | > 10000 nM | – | – | – |
| CC[C@H](C)[C@@H]1NC(=O)[C@H](C)NC(=O)[C@H](C)NC(=O)[C@@H]2CSSC[C@H](NC(=O)CN)C(=O)N[C@@H](CSSC[C@@H](C(N)=O)NC(=O)[C@H]([C@@H](C)CC)NC(=O)[C@@H]3CCCN3C(=O)[C@H](CO)NC1=O)C(=O)N[C@@H](CO)C(=O)N[C@@H](Cc1cnc[nH]1)C(=O)N1CCC[C@H]1C(=O)N[C@@H](C(C)C)C(=O)N2 (H-GCCSHPVCAAISPIC-NH2; disulfide 2-8, 3-15) | 30.7 nM | 101 nM | – | – | – |
| CC[C@H](C)[C@@H]1NC(=O)[C@@H]2CCCN2C(=O)[C@H](C)NC(=O)[C@H](CCCSC)NC(=O)[C@H](C)NC(=O)[C@H](CO)NC(=O)[C@@H]2CSSC[C@H](NC(=O)CN)C(=O)N[C@@H](CSSC[C@@H](C(N)=O)NC1=O)C(=O)N[C@@H](CO)C(=O)N[C@@H](Cc1cnc[nH]1)C(=O)N1CCC[C@H]1C(=O)N[C@@H](C(C)C)C(=O)N2 (H-GCCSHPVCSA[hMet]APIC-NH2; disulfide 2-8, 3-15) | 17.4 nM | 39.3 nM | – | – | – |
| CC[C@H](C)[C@@H]1NC(=O)[C@H](CCC(N)=O)NC(=O)[C@@H]2CCCN2C(=O)[C@H](CC(N)=O)NC(=O)[C@H](Cc2cnc[nH]2)NC(=O)[C@H](C(C)C)NC(=O)[C@H]([C@@H](C)O)NC(=O)[C@@H]2CSSC[C@H](NC(=O)[C@@H]3CCCN3C(=O)[C@H](CC(=O)O)NC(=O)[C@@H](N)CCCN=C(N)N)C(=O)N[C@@H](CSSC[C@@H](C(N)=O)NC1=O)C(=O)N[C@@H](CO)C(=O)N[C@@H](CC(N)=O)C(=O)N1CCC[C@H]1C(=O)N[C@@H](C(C)C)C(=O)N2 (H-RDPCCSNPVCTVHNPQIC-NH2; disulfide 4-10, 5-18) | – | – | 518 nM | 30 nM | – |
| CC[C@H](C)[C@@H]1NC(=O)[C@H](CCC(N)=O)NC(=O)[C@@H]2CCCN2C(=O)[C@H](CC(N)=O)NC(=O)[C@H](Cc2cnc[nH]2)NC(=O)[C@H](C(C)C)NC(=O)[C@H]([C@@H](C)O)NC(=O)[C@@H]2CSSC[C@H](NC(=O)[C@@H]3CCCN3C(=O)[C@H](CC(=O)O)NC(=O)[C@@H](N)CCCNC(=N)N)C(=O)N[C@@H](CSSC[C@@H](C(N)=O)NC1=O)C(=O)N[C@@H](CO)C(=O)N[C@@H](CC(N)=O)C(=O)N1CCC[C@H]1C(=O)N[C@@H](C(C)C)C(=O)N2 (H-RDPCCSNPVCTVHNPQIC-NH2; disulfide 4-10, 5-18) | – | – | – | – | 0.058 |
